Read-outs that look alike come from different tables or passages of the source.
How the values were obtained:
A2780 cells = test: In-vitro cell proliferation assay (SRB, 72 hours); format: cell-based; settings: sulforhodamine B (SRB) assay
Outline: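 Background from media-only plate subtracted; inhibition relative to DMSO-treated cells, value derived by interpolation between two concentrations.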

[1] = molecular target: T1, Recombinant His-tagged NAMPT (Homo sapiens, UniProt P43490); test: Biochemical inhibition assay: NAMPT enzymatic reaction, NMN quantified by mass spectrometry; settings: 33 nM NAMPT, 1 μM NAM, 100 μM PRPP, 30 minutes at room temperature, read-out: Biochem IC50
T1 construct: His; host or cells: E. coli
Outline: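 Reaction 30 min at room temperature with 1 μM NAM, 100 μM PRPP, 2.5 mM ATP (final), quenched with formic acid. NMN quantified by RapidFire electrospray MS, normalized to L-cystathionine; IC50 from percent inhibition versus DMSO.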

T1 sequence (P43490 whole entry): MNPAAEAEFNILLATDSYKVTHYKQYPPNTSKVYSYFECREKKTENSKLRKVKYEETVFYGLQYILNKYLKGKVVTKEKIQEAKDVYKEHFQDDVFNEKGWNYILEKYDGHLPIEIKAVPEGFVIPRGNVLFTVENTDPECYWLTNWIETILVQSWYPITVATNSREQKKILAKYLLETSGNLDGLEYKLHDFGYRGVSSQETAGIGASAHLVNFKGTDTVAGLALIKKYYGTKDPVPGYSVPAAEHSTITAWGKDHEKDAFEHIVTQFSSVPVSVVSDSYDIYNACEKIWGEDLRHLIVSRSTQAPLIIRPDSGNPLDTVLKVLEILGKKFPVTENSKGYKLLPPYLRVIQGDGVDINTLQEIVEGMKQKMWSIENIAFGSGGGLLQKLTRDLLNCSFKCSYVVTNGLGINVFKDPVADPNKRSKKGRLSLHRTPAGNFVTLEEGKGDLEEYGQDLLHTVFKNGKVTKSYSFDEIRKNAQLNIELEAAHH

Structure (SMILES) | IC50 (A2780 cells; Homo sapiens) [nM] | IC50 ([1]; 2.5 mM ATP) [nM] | IC50 ([1]; […] ATP) [nM] | IC50 (A2780 cells) [nM]
O=C(NCCCCC1CCN(C(=O)c2cccnc2)CC1)c1cc2cnccc2[nH]1 [N-(4-{1-[(pyridin-3-yl)carbonyl]piperidin-4-yl}butyl)-1H-pyrrolo[3,2-c]pyridine-2-carboxamide] | 23.1 | 98.6 | – | –
O=C(NCCCCC1CCN(C(=O)c2cccnc2)CC1)c1ccc2nccn2c1 [N-(4-{1-[(pyridin-3-yl)carbonyl]piperidin-4-yl}butyl)imidazo[1,2-a]pyridine-6-carboxamide] | 27.4 | 12.7 | – | –
O=C(NCCCCC1CCN(C(=O)c2cccnc2)CC1)c1cc2ccncc2s1 [N-(4-{1-[(pyridin-3-yl)carbonyl]piperidin-4-yl}butyl)thieno[2,3-c]pyridine-2-carboxamide] | 27.4 | 11.1 | – | –
O=C(NCCCCC1CCN(C(=O)c2ccncc2)CC1)c1cc2cnccc2[nH]1 [N-(4-{1-[(pyridin-4-yl)carbonyl]piperidin-4-yl}butyl)-1H-pyrrolo[3,2-c]pyridine-2-carboxamide] | 4.4 | 9.7 | – | –
O=C(NCCCCN1CCN(C(=O)c2cccc(Cl)c2)CC1)c1cc2cnccc2[nH]1 [N-(4-{4-[(3-chlorophenyl)carbonyl]piperazin-1-yl}butyl)-1H-pyrrolo[3,2-c]pyridine-2-carboxamide] | 347 | 106 | – | –
COc1cccc(C(=O)N2CCN(CCCCNC(=O)c3cc4cnccc4[nH]3)CC2)c1 [N-(4-{4-[(3-methoxyphenyl)carbonyl]piperazin-1-yl}butyl)-1H-pyrrolo[3,2-c]pyridine-2-carboxamide] | 855 | 436 | – | –
O=C(NCCC1CCN(C(=O)c2ccccc2)CC1)c1cc2cnccc2[nH]1 [N-[2-(1-benzoylpiperidin-4-yl)ethyl]-1H-pyrrolo[3,2-c]pyridine-2-carboxamide] | 20000 | 10000 | – | –
O=C(NCCc1ccc(-c2ccccc2)cc1)c1cc2cnccc2[nH]1 [N-[2-(4-phenylphenyl)ethyl]-1H-pyrrolo[3,2-c]pyridine-2-carboxamide] | 3980 | 126 | – | –
O=C(NCCCCC1CCN(C(=O)c2ccccc2)CC1)c1cc2cnccc2[nH]1 [N-[4-(1-benzoylpiperidin-4-yl)butyl]-1H-pyrrolo[3,2-c]pyridine-2-carboxamide] | 1.4 | 8.1 | – | –
O=C(NCCCCC1CCN(C(=O)c2ccccc2)CC1)c1ccc2nccn2c1 [N-[4-(1-benzoylpiperidin-4-yl)butyl]imidazo[1,2-a]pyridine-6-carboxamide] | 5.7 | 5.5 | – | –
O=C(NCCCCC1CCN(C(=O)c2ccccc2)CC1)c1cc2ccncc2s1 [N-[4-(1-benzoylpiperidin-4-yl)butyl]thieno[2,3-c]pyridine-2-carboxamide] | 1.2 | – | 6.3 | –
O=C(NCCCCC1CCN(C(=O)C2CCCCC2)CC1)c1cc2cnccc2[nH]1 [N-[4-(1-cyclohexanecarbonylpiperidin-4-yl)butyl]-1H-pyrrolo[3,2-c]pyridine-2-carboxamide] | 15.5 | 180 | – | –
O=C(NCCCCC1CCN(C(=O)C2CCCCC2)CC1)c1ccc2nccn2c1 [N-[4-(1-cyclohexanecarbonylpiperidin-4-yl)butyl]imidazo[1,2-a]pyridine-6-carboxamide] | 0.9 | 18.1 | – | –
O=C(NCCCCC1CCN(C(=O)C2CCCCC2)CC1)c1cc2ccncc2s1 [N-[4-(1-cyclohexanecarbonylpiperidin-4-yl)butyl]thieno[2,3-c]pyridine-2-carboxamide] | 72.7 | 77.9 | – | –
CSc1ncccc1C(=O)N1CCC(CCCCNC(=O)c2cc3cnccc3[nH]2)CC1 [N-[4-(1-{[2-(methylsulfanyl)pyridin-3-yl]carbonyl}piperidin-4-yl)butyl]-1H-pyrrolo[3,2-c]pyridine-2-carboxamide] | 0.7 | 8.3 | – | –
CSc1ncccc1C(=O)N1CCC(CCCCNC(=O)c2ccc3nccn3c2)CC1 [N-[4-(1-{[2-(methylsulfanyl)pyridin-3-yl]carbonyl}piperidin-4-yl)butyl]imidazo[1,2-a]pyridine-6-carboxamide] | 0.7 | 5.5 | – | –
CSc1ncccc1C(=O)N1CCC(CCCCNC(=O)c2cc3ccncc3s2)CC1 [N-[4-(1-{[2-(methylsulfanyl)pyridin-3-yl]carbonyl}piperidin-4-yl)butyl]thieno[2,3-c]pyridine-2-carboxamide] | 1.4 | 10.1 | – | –

Structure (SMILES) | IC50 (A2780 cells; Homo sapiens) [nM] | IC50 ([1]; 2.5 mM ATP) [nM] | IC50 ([1]; […] ATP) [nM] | IC50 (A2780 cells) [nM]
O=C(NCCCCC1CCN(C(=O)c2csc(-c3cccnc3)n2)CC1)c1cc2cnccc2[nH]1 [N-[4-(1-{[2-(pyridin-3-yl)-1,3-thiazol-4-yl]carbonyl}piperidin-4-yl)butyl]-1H-pyrrolo[3,2-c]pyridine-2-carboxamide] | 14.9 | 81.1 | – | –
O=C(NCCCCC1CCN(C(=O)c2csc(-c3cccnc3)n2)CC1)c1ccc2nccn2c1 [N-[4-(1-{[2-(pyridin-3-yl)-1,3-thiazol-4-yl]carbonyl}piperidin-4-yl)butyl]imidazo[1,2-a]pyridine-6-carboxamide] | 67 | 61.1 | – | –
O=C(NCCCCC1CCN(C(=O)c2csc(-c3cccnc3)n2)CC1)c1cc2ccncc2s1 [N-[4-(1-{[2-(pyridin-3-yl)-1,3-thiazol-4-yl]carbonyl}piperidin-4-yl)butyl]thieno[2,3-c]pyridine-2-carboxamide] | 85.3 | 70.6 | – | –
O=C(NCCCCC1CCN(S(=O)(=O)c2ccccc2OC(F)(F)F)CC1)c1cc2cnccc2[nH]1 [N-[4-(1-{[2-(trifluoromethoxy)benzene]sulfonyl}piperidin-4-yl)butyl]-1H-pyrrolo[3,2-c]pyridine-2-carboxamide] | – | – | 22.6 | 3.3
O=C(NCCCCC1CCN(C(=O)c2ccccc2OC(F)(F)F)CC1)c1cc2cnccc2[nH]1 [N-[4-(1-{[2-(trifluoromethoxy)phenyl]carbonyl}piperidin-4-yl)butyl]-1H-pyrrolo[3,2-c]pyridine-2-carboxamide] | 1.3 | 20.5 | – | –
O=C(NCCCCC1CCN(C(=O)c2ccccc2OC(F)(F)F)CC1)c1ccc2nccn2c1 [N-[4-(1-{[2-(trifluoromethoxy)phenyl]carbonyl}piperidin-4-yl)butyl]imidazo[1,2-a]pyridine-6-carboxamide] | 1.9 | 2.5 | – | –
O=C(NCCCCC1CCN(C(=O)c2ccccc2OC(F)(F)F)CC1)c1cc2ccncc2s1 [N-[4-(1-{[2-(trifluoromethoxy)phenyl]carbonyl}piperidin-4-yl)butyl]thieno[2,3-c]pyridine-2-carboxamide] | 3.1 | 10.4 | – | –
O=C(NCCCCC1CCN(C(=O)c2csc(C(F)(F)F)n2)CC1)c1ccc2nccn2c1 [N-[4-(1-{[2-(trifluoromethyl)-1,3-thiazol-4-yl]carbonyl}piperidin-4-yl)butyl]imidazo[1,2-a]pyridine-6-carboxamide] | 74 | 74.3 | – | –
O=C(NCCCCC1CCN(C(=O)c2csc(C(F)(F)F)n2)CC1)c1cc2ccncc2s1 [N-[4-(1-{[2-(trifluoromethyl)-1,3-thiazol-4-yl]carbonyl}piperidin-4-yl)butyl]thieno[2,3-c]pyridine-2-carboxamide] | 100 to 1000 | 94 | – | –
O=C(NCCCCC1CCN(C(=O)c2cnc(C(F)(F)F)nc2)CC1)c1cc2cnccc2[nH]1 [N-[4-(1-{[2-(trifluoromethyl)pyrimidin-5-yl]carbonyl}piperidin-4-yl)butyl]-1H-pyrrolo[3,2-c]pyridine-2-carboxamide] | 100 to 1000 | 242 | – | –
O=C(NCCCCC1CCN(C(=O)c2cnc(C(F)(F)F)nc2)CC1)c1cc2ccncc2s1 [N-[4-(1-{[2-(trifluoromethyl)pyrimidin-5-yl]carbonyl}piperidin-4-yl)butyl]thieno[2,3-c]pyridine-2-carboxamide] | 100 to 1000 | 158 | – | –
O=C(NCCCCC1CCN(S(=O)(=O)c2cccc(OC(F)(F)F)c2)CC1)c1cc2cnccc2[nH]1 [N-[4-(1-{[3-(trifluoromethoxy)benzene]sulfonyl}piperidin-4-yl)butyl]-1H-pyrrolo[3,2-c]pyridine-2-carboxamide] | – | – | 77.8 | 18.7
O=C(NCCCCC1CCN(C(=O)c2ccc(-n3cccn3)cc2)CC1)c1cc2cnccc2[nH]1 [N-[4-(1-{[4-(1H-pyrazol-1-yl)phenyl]carbonyl}piperidin-4-yl)butyl]-1H-pyrrolo[3,2-c]pyridine-2-carboxamide] | 13.6 | 50.7 | – | –
O=C(NCCCCC1CCN(C(=O)c2ccc(-n3cccn3)cc2)CC1)c1cc2ccncc2s1 [N-[4-(1-{[4-(1H-pyrazol-1-yl)phenyl]carbonyl}piperidin-4-yl)butyl]thieno[2,3-c]pyridine-2-carboxamide] | 100 to 1000 | 48.1 | – | –
O=C(NCCCCC1CCN(C(=O)c2ccc(OC(F)F)cc2)CC1)c1cc2cnccc2[nH]1 [N-[4-(1-{[4-(difluoromethoxy)phenyl]carbonyl}piperidin-4-yl)butyl]-1H-pyrrolo[3,2-c]pyridine-2-carboxamide] | 31.4 | 183 | – | –
O=C(NCCCCC1CCN(C(=O)c2ccc(OC(F)F)cc2)CC1)c1ccc2nccn2c1 [N-[4-(1-{[4-(difluoromethoxy)phenyl]carbonyl}piperidin-4-yl)butyl]imidazo[1,2-a]pyridine-6-carboxamide] | 101 | 42.7 | – | –
O=C(NCCCCC1CCN(C(=O)c2ccc(OC(F)F)cc2)CC1)c1cc2ccncc2s1 [N-[4-(1-{[4-(difluoromethoxy)phenyl]carbonyl}piperidin-4-yl)butyl]thieno[2,3-c]pyridine-2-carboxamide] | 100 to 1000 | 77.4 | – | –
